Experimental data reported in patent US20100015635A1, “IMMOBILISATION OF FLUORESCENT PROTEINS” (priority 2006, published 2010).

Key:
[1] = Sol-gel controls: O2 dependence of non-binding species, leaking, storage stability; type: physicochemical; conditions: individually encapsulated in a sol-gel matrix
Text: [19]. The buffer solution surrounding the quartz slides was checked for leaking of the labeled protein out of the matrix. […] As already reported, the mechanical strength of silica gels often prevents the leaking of biomolecules. 3) Tryptophan fluorescence has been used to study stability and flexibility of proteins upon entrapment.

[2] = Control: emission of mixture of BSA-Atto390 and Hc-Cy5 during deoxygenation, excitation 280 nm; conditions: solution mixture
Text: To rule out that the changes in dye fluorescence might be due to a specific quenching by molecular oxygen, a mixture of Atto390 labelled bovine serum albumin (BSA) and Hc-Cy5 was deoxygenated while recording emission spectra from 300 to 750 nm upon excitation at 280 nm. The applied labels emit at different wavelengths, therefore permitting the simultaneous observation of each individual conjugate. […] With the labels exchanged, the reverse was observed. From this it can be concluded that the variations in label fluorescence correlate with the binding of O2 to the labelled hemocyanin. […] Similar observations were made for Ty.

[3] = Switching ratio of Trp/label emission of tyrosinase (Ty) on deoxygenation, excitation 280 nm; design: species or system Streptomyces antibioticus; conditions: emission of Trp or of N-terminal dye label on Ty, excitation at 280 nm
Protocol: To illustrate this Example, Ty from the soil bacterium Streptomyces antibiotius was selected.
S.c. Ty contains 12 Trp residues on a total of 271 amino-acids (4.4% against ˜1% on average), which cluster around the type-3 centre. […] In an air-saturated solution (0.26 mM O2), practically all protein occurs in the oxygenated form (see FIG. 2A). Upon complete deoxygenation, the Trp fluorescence increases by a factor of 2.7 while the shape and position of the emission band remain unchanged. For the C.a. Hc samples, this factor, further referred to as the switching ratio SR (=Fred/Foxy), amounts to 2.2.
Both Hc and Ty were labelled at their N-terminus with each of the five dyes. […] The peak around […] is a second-order artefact. In a solution containing dye and protein separately (not linked) this peak (280 nm) was missing. The second order artefact is due to higher orders of light being allowed through the monochromator. The artefact can be excluded by placing a cut-off filter in the detection path that allows through light only beyond a certain wavelength (for example […]).
In all cases, an increase in label emission was observed after deoxygenating the sample (FIG. 4A). […] The Cy3 fluorescence is specific for the labelled protein, while the Trp emission derives mainly (>95%) from unlabelled Hc. […]

Molecule: bovine serum albumin labeled with Cy5: BSA labeled with Cy5 encapsulated in a sol-gel matrix, control
- dependence of fluorescence intensity on [O2] [1]: neither unreacted Cy5 nor bovine serum albumin labeled with Cy5, both individually encapsulated in a sol-gel matrix, depended on the [O2]

Molecule: BSA-Atto390: Atto390 labelled bovine serum albumin, control
- dependence of label emission on [O2] [2]: does not

B1: Ty: tyrosinase from the soil bacterium Streptomyces antibiotius (protein, UniProt P07524 2-273, looked up)
Tyrosinase: TVRKNQASLTAEEKRRFVAALLELKRTGRYDAFVTTHNAFILGDTDNGERTGHRSPSFLPWHRRFLLEFERALQSVDASVALPYWDWSADRSTRSSLWAPDFLGGTGRSRDGQVMDGPFAASAGNWPINVRVDGRTFLRRALGAGVSELPTRAEVDSVLAMATYDMAPWNSGSDGFRNHLEGWRGVNLHNRVHVWVGGQMATGVSPNDPVFWLHHAYIDKLWAEWQRRHPSSPYLPGGGTPNVVDLNETMKPWNDTTPAALLDHTRHYTFDV
- SR Tyr (switching ratio Fred/Foxy) [3]: 2.7
